Measurements reported in patent publication US12539289B2, “Phorbol ester compositions and methods of use for treating or reducing the duration of cytopenia” (BIOSUCCESS BIOTECH CO., LTD., priority 2014, dated 2026).
Several values for one entry are separate records, joined by “and”; a condition that tells them apart may be missing. Equal values may be shown once.

Key:
[1] = tested on: bone marrow stromal cells (BMSCs) from patients of AML in the bone marrow suppression phase; experiment: BMSC proliferation or inhibition, CCK8 method, AML patients; format: cell-based, human
Procedure: (§1) To explore the effect of TPA alone or combined rhG-CSF on bone marrow hematopoietic cells proliferation and colony formation ability which from patients of acute myeloid leukemia (AML) in the period of bone marrow suppression in vitro and to observe the effect of TPA on bone marrow stromal cells(BMSCs) proliferation or inhibition from patients of AML in the period of myelosuppression and the healthy persons.
(§2) • 1) Human bone marrow cells from the same AML patient after chemotherapy were cultured by methyl cellulose semi-solid culture medium. Groups: Blank, TPA (10 ng/ml), G-CSF (50 ng/ml), TPA (10 ng/ml)+GCSF (50 ng/ml). The experiments were repeated for 4 times. • 2) The stroma cells of bone marrow from the healthy human and the AML patient after chemotherapy were cultured by methyl cellulose semi-solid culture medium. Different TPA concentrations were added. Groups: Blank, TPA (0.1 ng/ml), TPA (1.0 ng/ml), TPA (5 ng/ml), TPA (10 ng/ml), TPA (20 ng/ml), TPA (30 ng/ml). • 3) Cultivation of BMSCs from healthy persons and patients of AML in the bone marrow suppression phase in vitro, added to TPA of different concentrations, 0.1 ng/ml, 1.0 ng/ml, 5 ng/ml, 10 ng/ml, 20 ng/ml, 30 ng/ml, and set up a control to detect cell proliferation or inhibition with CCK8 method. Results and Conclusion: • 1. […]

[2] = tested on: bone marrow stromal cells (BMSCs) from healthy persons; experiment: BMSC proliferation or inhibition, CCK8 method, healthy persons; format: cell-based, human; conditions: BMSCs of the healthy human and the AML patient after chemotherapy
Procedure: as §1, §2

[3] = tested on: Drug Induced Cytopenia; experiment: Drug induced cytopenia treated by TPA: blood cell counts after DNR + Ara-C; format: in vivo, mice; conditions: for PLT / RBC / WBC: n = 10
Procedure: Ninety (90) adult mice were randomly assigned to 9 groups (10 mice per group). No drug was administered in Control group. Model group was given DNR (6 mg/kg)+Ara-C (150 mg/kg) on Day 0. The rest of the 7 groups were given DNR (6 mg/kg)+Ara-C (150 mg/kg) on Day 0, and each group on Day 7, Day 8, and Day 9 was administered with one of the following drugs: G-CSF (10 μg/kg), EPO (500 IU/kg), TPA (12.5 μg/kg), TPA (25 μg/kg), TPA (50 μg/kg), TPA (12.5 μg/kg)+GCSF (10 μg/kg), or TPA (12.5 μg/kg)+EPO (500 IU/kg).

[4] = tested on: post-chemotherapy neutropenia; conditions: cited from earlier work
[5] = tested on: Human bone marrow cells from the same AML patient after chemotherapy; experiment: Colony formation of bone marrow hematopoietic cells in methyl cellulose semi-solid culture medium; format: cell-based
Procedure: as §1
• 1) Human bone marrow cells from the same AML patient after chemotherapy were cultured by methyl cellulose semi-solid culture medium. Groups: Blank, TPA (10 ng/ml), G-CSF (50 ng/ml), TPA (10 ng/ml)+GCSF (50 ng/ml). The experiments were repeated for 4 times. • 2) The stroma cells of bone marrow from the healthy human and the AML patient after chemotherapy were cultured by methyl cellulose semi-solid culture medium. Different TPA concentrations were added. Groups: Blank, TPA (0.1 ng/ml), TPA (1.0 ng/ml), TPA (5 ng/ml), TPA (10 ng/ml), TPA (20 ng/ml), TPA (30 ng/ml). • 3) Cultivation of BMSCs from healthy persons and patients of AML in the bone marrow suppression phase in vitro, added to TPA of different concentrations, 0.1 ng/ml, 1.0 ng/ml, 5 ng/ml, 10 ng/ml, 20 ng/ml, 30 ng/ml, and set up a control to detect cell proliferation or inhibition with CCK8 method. Results and Conclusion: • 1. Compared the clones of four groups in incomplete medium, in the control group a small cell clusters can be seen for 24-72 hours, but the cells were dead as time prolong. Cultivated 14 days, control group have no clones formation, CFU-GM are dominated for G-CSF group, TPA alone and combination with G-CSF group have myeloid colony formation, while BFU-E and CFU-GEMM. […] Compared the clones of different concentration of TPA stimulation in incomplete medium, the total clones of 5 ng/ml, 10 ng/ml, 20 ng/ml group are higher than other groups, including 10 ng/ml in the highest, there are statistical significance (both P<0.05). While decreasing or increasing TPA concentration can not improve the colony number. The better concentration of TPA to stimulate the colony formation is 5˜20 ng/ml. […] Compared the clones of different concentration of TPA and G-CSF (50 ng/ml) stimulation in incomplete medium. Combination with G-CSF the better concentration of TPA is 1˜10 ng/ml (both P<0.05). Combination with G-CSF the best concentration of TPA is 5 ng/ml and 1 ng/ml. for CFU-GM and CFU-GEMM. The main clone types are myeloid colones, CFU-GM, also have CFU-GEMM and fewer BFU-E. • 4. […] While TPA group and G-CSF group the number of clones of TPA group and G-CSF group have no statistical significance (P=0.577). • 5. […] Meanwhile, TPA promote bone marroe stromal cells from the AML patients proliferation of concentration 5˜30 ng/ml (cell number 2×10^5/ml). 5 ng/ml of TPA is the best concentration of promoting proliferation, and G-CSF had no effect on the growth of BMSCs from healthy persons or AML patients.

[6] = 8 days after DNR + Ara-c, 1 day after 1st dose, G-CSF 10, EPO 500, TPA 12.5, TPA + GCSF 12.5 + 10, TPA + EPO 12.5 + 500 (μg·kg^−1)
[7] = 8 days after DNR + Ara-c, 1 day after 1st dose, TPA 25 μg·kg^−1
[8] = 8 days after DNR + Ara-c, 1 day after 1st dose, TPA 50 μg·kg^−1
[9] = 9 days after DNR + Ara-c, 1 day after 2nd dose, G-CSF 10, EPO 500, TPA 12.5, TPA + GCSF 12.5 + 10, TPA + EPO 12.5 + 500 (μg·kg^−1)
[10] = 9 days after DNR + Ara-c, 1 day after 2nd dose, TPA 25 μg·kg^−1
[11] = 9 days after DNR + Ara-c, 1 day after 2nd dose, TPA 50 μg·kg^−1
[12] = 10 days after DNR + Ara-c, 1 day after 3rd dose, G-CSF 10, EPO 500, TPA 12.5, TPA + GCSF 12.5 + 10, TPA + EPO 12.5 + 500 (μg·kg^1)
[13] = 10 days after DNR + Ara-c, 1 day after 3rd dose, TPA 25 μg·kg^1
[14] = 10 days after DNR + Ara-c, 1 day after 3rd dose, TPA 50 μg·kg^1

CCCCCCCCCCCCCC(=O)O[C@@H]1[C@@H](C)[C@@]2(O)[C@@H](C=C(CO)C[C@]3(O)C(=O)C(C)=C[C@@H]23)[C@@H]2C(C)(C)[C@]12OC(C)=O [TPA, 12-O-tetradecanoylphorbol-13-acetate]
best concentration of promoting proliferation of BMSCs [1]: 5 ng/mL
optimal concentrations for growth of stroma cells of bone marrow (BMSCs) [2]: 5 ng/mL and 10 ng/mL
PLT [3, 6]: 395 ± 30.41^(1)(1)(2)(2) ×10^9/L
RBC [3, 6]: 6.08 ± 0.49^(1)(1)(2)(3)(3)(4) ×10^12/L
WBC [3, 6]: 6.4 ± 0.62^(2)(2) ×10^9/L
PLT [3, 7]: 391 ± 20.42^(1)(1)(2)(2) ×10^9/L
RBC [3, 7]: 7.09 ± 0.23^(1)(1)(2)(2)(3)(3)(5) ×10^12/L
WBC [3, 7]: 6.4 ± 0.35^(2)(2) ×10^9/L
PLT [3, 8]: 413 ± 9.64^(1)(1)(2)(2) ×10^9/L
RBC [3, 8]: 7.10 ± 0.24^(1)(1)(2)(2)(3)(3)(5) ×10^12/L
WBC [3, 8]: 6.5 ± 0.75^(2)(2) ×10^9/L
PLT [3, 9]: 965 ± 76.23^(1)(1)(2)(2) ×10^9/L
RBC [3, 9]: 7.47 ± 0.55^(1)(1)(2)(2)(3)(3) ×10^12/L
WBC [3, 9]: 6.84 ± 0.44^(2) ×10^9/L
PLT [3, 10]: 951 ± 70.29^(1)(1)(2)(2) ×10^9/L
RBC [3, 10]: 7.34 ± 0.87^(1)(1)(2)(2)(3)(3) ×10^12/L
WBC [3, 10]: 6.72 ± 0.50^(2) ×10^9/L
PLT [3, 11]: 999 ± 45.67^(1)(1)(2)(2) ×10^9/L
RBC [3, 11]: 7.30 ± 0.49^(1)(1)(2)(2)(3)(3) ×10^12/L
WBC [3, 11]: 6.86 ± 0.39^(2) ×10^9/L
PLT [3, 12]: 1447 ± 78.09^(2)(2) ×10^9/L
RBC [3, 12]: 7.59 ± 0.67^(1)(1)(2)(2)(3)(3) ×10^12/L
WBC [3, 12]: 9.51 ± 0.85^(1)(1)(2)(2)(4)(4) ×10^9/L
PLT [3, 13]: 1465 ± 72.81^(2)(2) ×10^9/L
RBC [3, 13]: 8.26 ± 0.63^(1)(1)(2)(2)(3)(3)(5) ×10^12/L
WBC [3, 13]: 9.69 ± 0.85^(1)(1)(2)(2)(4)(4) ×10^9/L
RBC [3, 14]: 8.18 ± 0.55^(1)(1)(2)(2)(3)(3)(5) ×10^12/L
WBC [3, 14]: 9.90 ± 0.64^(1)(1)(2)(2)(4)(4) ×10^9/L
PLT ([3]; 10 days after DNR + Ara-c, 1 day after 3rd dose, TPA 50 μg·kg^−1): 1463 ± 80.33^(2)(2) ×10^9/L
production of WBC, RBC, and platelet ([3]; conclusion of Example 6): promoted the production of WBC, RBC, and platelet
duration of post-chemotherapy neutropenia ([4]; acute myelocytic leukemia (AML) patients): capable of shortening the duration of post-chemotherapy neutropenia
tolerability ([4]; recommended Phase 2 dose 0.125 mg/m^2 daily up to 5 days a week×2 weeks): well tolerated with only minor adverse events
best concentration for hematopoietic cell clone formation (highest total clones) ([5]; TPA alone, incomplete medium): 10 ng/mL
colony types whose formation is promoted (CFU-GM, CFU-GEMM, BFU-E) ([5]; bone marrow of AML patients in the period of bone marrow suppression, in vitro): promoted the formation of CFU-GM, CFU-GEMM, and BFU-E
total number of clones ([5]; incomplete medium, cultivated 14 days, TPA 10 ng/ml, G-CSF 50 ng/ml): higher than G-CSF group
